According to paper PMC10222328 (Pharmaceuticals, 2023):

Tests used:
[1] = Acute oral toxicity evaluation in rats; type: in vivo, Wistar albino rats; settings: single oral dose 10 mg/kg, after 14 days, (absolute organ weight × 100%)/body weight
Method: Healthy male rats (n = 24, three rats per group, body weight 180–200 g) were used for conducting an acute oral toxicity study. Animals were divided into the following groups: a control group that included rats that received a single dose of 1% DMSO and experimental groups that involved rats that received compounds 1–7 in the single dose of 10 mg/kg.
After oral administration of the aforementioned agents, rats were kept in single cages and monitored during 14 days. Food and water intake, as well as body weight, were measured daily. All the behavioral changes and any signs of toxicity were monitored daily during 2-week protocol (fur and skin, eyes, salivation, respiration, urination (color), faeces consistency, somatomotor activity, and other alterations in behavior pattern). After accomplishing 14 days, animals were sacrificed and organ weight (liver, kidney, stomach, and heart) was recorded. Relative organ weight was calculated as follows:(absolute organ weight × 100%)/body weight of rat on the day of sacrifice.(1)

[2] = molecular target: T1, COX-2 (Homo sapiens, UniProt P35354); assay: Fluorometric COX-2 inhibitor screening kit; type: biochemical; settings: at 10 µM; mean ± standard error of two measurements; read-out: COX-2 Percent of Inhibition
T1 construct: purchased Abcam, UK
T1 sequence (P35354 18-604): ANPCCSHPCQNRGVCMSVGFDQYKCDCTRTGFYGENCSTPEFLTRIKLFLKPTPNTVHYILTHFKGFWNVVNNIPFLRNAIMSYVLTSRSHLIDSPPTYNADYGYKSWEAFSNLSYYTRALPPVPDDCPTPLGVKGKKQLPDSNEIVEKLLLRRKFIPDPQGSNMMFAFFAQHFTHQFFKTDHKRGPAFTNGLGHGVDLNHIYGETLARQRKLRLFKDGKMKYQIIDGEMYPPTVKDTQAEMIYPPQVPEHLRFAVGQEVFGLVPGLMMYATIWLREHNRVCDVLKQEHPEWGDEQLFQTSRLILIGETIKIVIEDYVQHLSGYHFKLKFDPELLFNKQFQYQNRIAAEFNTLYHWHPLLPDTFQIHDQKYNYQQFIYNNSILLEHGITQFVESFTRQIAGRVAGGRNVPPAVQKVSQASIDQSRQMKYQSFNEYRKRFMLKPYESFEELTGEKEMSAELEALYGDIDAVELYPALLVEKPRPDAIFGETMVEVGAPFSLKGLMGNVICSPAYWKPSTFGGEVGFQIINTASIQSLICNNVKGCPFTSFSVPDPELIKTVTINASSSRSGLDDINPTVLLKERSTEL
Method: COX-2 and 5-LOX inhibitory activities were tested using fluorometric COX-2 and 5-LOX inhibitor screening kits (Abcam, UK). These assays are based on the fluorometric detection of Prostaglandin G2 (a product generated by the COX enzyme) or on the fluorometric detection of intermediate generated by the 5-LOX enzyme. The experiments were conducted according to the manufacturers’ instructions.
For the determination of COX-2 inhibitory activity, tested compounds were dissolved in DMSO (5 mM stock solutions) and then diluted with the same solvent to obtain test solutions. Test solutions were further diluted 5X with COX assay buffer (2 µL of test solution and 8 µL COX assay buffer). […] Solvent control (SC) was prepared by adding 2 µL DMSO and 8 µL COX assay buffer, while sample (S) and enzyme control (EC) were prepared by adding 10 µL of diluted test solution and COX assay buffer, respectively, into assigned wells. For the determination of 5-LOX inhibitory activity, tested compounds were also dissolved in DMSO to prepare stock solutions with the same concentration (5mM), which were then diluted with the same solvent to obtain test solutions. Subsequently, test solutions were added to corresponding wells (2 µL).

[3] = system: carrageenan-induced rat paw edema; assay: Carrageenan-induced rat paw edema model; type: in vivo, Wistar albino rats; settings: for Rat paw thickness: mean ± SD; for inhibition in vivo at 2.5 mg/kg / inhibition in vivo at 5 mg/kg / inhibition in vivo at 10 mg/kg: Rattus norvegicus, po
Method: In vivo assessment of anti-inflammatory activity of compounds 1–7 was conducted in the carrageenan-induced rat paw edema model. Inflammation in all rats was induced by an intraplantar injection of […] of 0.5% carrageenan saline in the left hind paw. Two hundred male Wistar albino rats (180–210 g) were divided into seven experimental (n = 168 rats, 8 rats per subgroup) and two control groups (n = 32 rats, 8 rats per subgroup).
Experimental groups involved rats that received compounds 1–7, and they were divided into three subgroups: rats received compounds 1–7 per os in three doses (2.5 mg/kg, 5 mg/kg, and 10 mg/kg) dissolved in 1% DMSO for 60 min before inducing inflammation.
In order to quantify the anti-inflammatory effect, the thickness of the left paw tissue of each rat was measured at the following time intervals: immediately before inducing inflammation (moment 0) and 1, 2, 3, and 4 h (moments 1, 2, 3, and 4) after inflammation. Tissue thickness was measured in the middle of the rat paw using a digital vernier caliper (Aerospace, Beijing, China).

[4] = 2.5 mg/kg per os, 1 h after carrageenan
[5] = 2.5 mg/kg per os, 2 h after carrageenan
[6] = 2.5 mg/kg per os, 3 h after carrageenan
[7] = 2.5 mg/kg per os, 4 h after carrageenan
[8] = 5.0 mg/kg per os, 1 h after carrageenan
[9] = 5.0 mg/kg per os, 2 h after carrageenan
[10] = 5.0 mg/kg per os, 3 h after carrageenan
[11] = 5.0 mg/kg per os, 4 h after carrageenan
[12] = 10.0 mg/kg per os, 1 h after carrageenan
[13] = 10.0 mg/kg per os, 2 h after carrageenan
[14] = 10.0 mg/kg per os, 4 h after carrageenan
[15] = 1 h, 2.5 mg/kg per os, 1 h after carrageenan
[16] = 1 h, 5.0 mg/kg per os, 1 h after carrageenan
[17] = 1 h, 10.0 mg/kg per os, 1 h after carrageenan
[18] = 2 h, 2.5 mg/kg per os, 2 h after carrageenan
[19] = 2 h, 5.0 mg/kg per os, 2 h after carrageenan
[20] = 2 h, 10.0 mg/kg per os, 2 h after carrageenan
[21] = 3 h, 2.5 mg/kg per os, 3 h after carrageenan
[22] = 3 h, 5.0 mg/kg per os, 3 h after carrageenan
[23] = 3 h, 10.0 mg/kg per os, 3 h after carrageenan
[24] = 4 h, 2.5 mg/kg per os, 4 h after carrageenan
[25] = 4 h, 5.0 mg/kg per os, 4 h after carrageenan
[26] = 4 h, 10.0 mg/kg per os, 4 h after carrageenan
[27] = 10.0 mg/kg per os, 3 h after carrageenan

Row | Structure (SMILES) | Relative organ weight, heart [1] | Relative organ weight, kidney [1] | Relative organ weight, liver [1] | Relative organ weight, stomach [1] | inhibition at 10 µM [2] | Rat paw thickness [3, 4] | Rat paw thickness [3, 5] | Rat paw thickness [3, 6] | Rat paw thickness [3, 7] | Rat paw thickness [3, 8] | Rat paw thickness [3, 9] | Rat paw thickness [3, 10] | Rat paw thickness [3, 11] | Rat paw thickness [3, 12] | Rat paw thickness [3, 13] | Rat paw thickness [3, 14] | inhibition in vivo at 2.5 mg/kg [3, 15] | inhibition in vivo at 5 mg/kg [3, 16] | inhibition in vivo at 10 mg/kg [3, 17] | inhibition in vivo at 2.5 mg/kg [3, 18] | also measured
1 | COc1ccc2cc([C@H](C)C(=O)NC(=S)Nc3ccc(C(C)=O)cc3)ccc2c1 [Compound 5, (S)-N-((4-acetylphenyl)carbamothioyl)-2-(6-methoxynaphthalen-2-yl)propanamide] | 0.31 ± 0.03 | 0.30 ± 0.03 | 2.97 ± 0.33 | 0.53 ± 0.04 | 19.6 ± 4.55% | 5.73 ± 0.12 mm | 5.37 ± 0.25 mm | 5.20 ± 0.20 mm | 4.57 ± 0.15 mm | 5.05 ± 0.07 mm | 4.85 ± 0.07 mm | 4.40 ± 0.14 mm | 3.95 ± 0.07 mm | 5.5 ± 0.71 mm | 5.35 ± 0.64 mm | 4.75 ± 0.49 mm | 10.7% | 19.6% | 38.1% | 17.2% | inhibition in vivo at 5 mg/kg [3, 19]: 19.5%; inhibition in vivo at 10 mg/kg [3, 20]: 37.9%; inhibition in vivo at 2.5 mg/kg [3, 21]: 10.5%; inhibition in vivo at 5 mg/kg [3, 22]: 28.8%; inhibition in vivo at 10 mg/kg [3, 23]: 39.7%; inhibition in vivo at 2.5 mg/kg [3, 24]: 31%; inhibition in vivo at 5 mg/kg [3, 25]: 41.4%; inhibition in vivo at 10 mg/kg [3, 26]: 47 to 54%
2 | CCOC(=O)C(Cc1ccccc1)NC(=S)NC(=O)C(C)c1ccc2cc(OC)ccc2c1 [Compound 6, Ethyl(((S)-2-(6-methoxynaphthalen-2-yl)propanoyl)carbamothioyl)-L-phenylalaninate] | 0.34 ± 0.02 | 0.35 ± 0.05 | 3.01 ± 0.29 | 0.55 ± 0.03 | 24 ± 5.36% | 6.17 ± 0.31 mm | 5.87 ± 0.23 mm | 5.37 ± 0.55 mm | 4.93 ± 0.21 mm | 6.47 ± 0.57 mm | 6.17 ± 0.06 mm | 5.77 ± 0.06 mm | 5.27 ± 0.21 mm | 6.20 ± 0.20 mm | 6.17 ± 0.23 mm | 5.03 ± 0.76 mm | 11.8% | 17.5% | 21.6% | 15.7% | Rat paw thickness [3, 27]: 5.27 ± 0.72 mm; inhibition in vivo at 5 mg/kg [3, 19]: 21.8%; inhibition in vivo at 10 mg/kg [3, 20]: 14.2%; inhibition in vivo at 2.5 mg/kg [3, 21]: 26.9%; inhibition in vivo at 5 mg/kg [3, 22]: 28.8%; inhibition in vivo at 10 mg/kg [3, 23]: 47.1%; inhibition in vivo at 2.5 mg/kg [3, 24]: 37.9%; inhibition in vivo at 5 mg/kg [3, 25]: 44.7%; inhibition in vivo at 10 mg/kg [3, 26]: 49.4%
3 | COC(=O)[C@H](Cc1cn(C)c2ccccc12)NC(=S)NC(=O)[C@@H](C)c1ccc2cc(OC)ccc2c1 [Compound 7, Methyl-N^α-(((S)-2-(6-methoxynaphthalen-2-yl)propanoyl)carbamothioyl)-1-methyltryptophanate] | 0.33 ± 0.03 | 0.29 ± 0.03 | 2.64 ± 0.46 | 0.50 ± 0.04 | 24.2 ± 5.77% | 7.03 ± 0.15 mm | 6.47 ± 0.21 mm | 6.10 ± 0.20 mm | 5.87 ± 0.21 mm | 7.10 ± 0.17 mm | 6.80 ± 0.20 mm | 6.43 ± 0.32 mm | 6.03 ± 0.61 mm | 6.87 ± 0.25 mm | 6.50 ± 0.36 mm | 5.47 ± 0.38 mm | 21.6% | 24.4% | 14.8% | 38.7% | Rat paw thickness [3, 27]: 6.03 ± 0.21 mm; inhibition in vivo at 5 mg/kg [3, 19]: 29.5%; inhibition in vivo at 10 mg/kg [3, 20]: 21.8%; inhibition in vivo at 2.5 mg/kg [3, 21]: 47%; inhibition in vivo at 5 mg/kg [3, 22]: 36.1%; inhibition in vivo at 10 mg/kg [3, 23]: 32.4%; inhibition in vivo at 2.5 mg/kg [3, 24]: 49.4%; inhibition in vivo at 5 mg/kg [3, 25]: 47.1%; inhibition in vivo at 10 mg/kg [3, 26]: 54.1%
